According to patent US20260055117A1, “SUBSTITUTED PYRIDONE GPR84 ANTAGONISTS AND USES THEREOF” (Liminal BioSciences Limited, priority 2022, published 2026):

Target: T1, human GPR84 receptor (Homo sapiens, UniProt Q9NQS5)
T1 construct: host or cells: HEK293, transiently transfected
Experiment: Gαi biosensor BRET assay (GPR84 antagonism vs agonist ZQ-16)
Assay type: cell-based
Settings: HEK293 cells, 200 nmol/L agonist ZQ-16; for IC50: Gαi biosensor BRET assay; for inhibition at 2 µM: tested at 2 μM (concentration code A); for inhibition at 10 µM: tested at 10 μM (concentration code D)
Source text: Background—The following assays can be used for determination of GPR84 activation in living HEK293 cells. The Gai BRET biosensor (Gagnon et al., 2018; Gales et al., 2006. Nat Struct Mol Biol. 13, 778-86; Saulieres et al., 2012. Nat Chem Biol. 8, 622-30) allows to directly monitor GPR84-mediated activation of Gai. The Gai biosensor consists of a Rluc8-tagged Gai2 subunit, a GFP10-tagged Gy2 subunit, and an untagged GB1. Agonist stimulation and GPR84 activation triggers a physical separation between the RLuc8-Gai donor and the GFP10-Gy2 acceptor, resulting in a decrease in BRET signal whose amplitude is correlated to ligand efficacy (Gales et al., 2006). Moreover, signaling functions of GPCRs are tightly regulated by endocytosis, the targeting of receptors to endosomes and their sorting to lysosomes or recycling to the plasma membrane. The early endosomes (EEs) trafficking assay (Namkung et al., 2016. Nat Commun. 7, 12178) uses Rluc8-tagged GPR84 and Renilla GFP (rGFP) attached to the FYVE domain from human endofin/zinc finger FYVE domain-containing protein 16, which binds phosphatidylinositol 3-phosphate in EEs. Agonist stimulation of GPR84-Rluc8 leads to trafficking of the receptor to EEs, and ensuing increase of the donor concentration relative to the rGFP-FYVE acceptor anchored in the same cellular compartment, and thus results in an increase in BRET signal.
Plasmids—The cDNA clones for human GPR84 receptor, human Gai2, GB1, and Gy2 were obtained from the cDNA Resource Center (www.cdna.org). GFP10 (F64L, S147P, S202F and H231L variant of Aequorea victoria Green Fluorescent Protein) gBlocks gene fragments (Integrated DNA Technologies, IA) and linker were inserted in frame at the N-terminus of human Gy2. Rluc8 (A55T, C124A, S130A, K136R, A143M, M185V, M253L, and S287L variant of the Renilla reniformis luciferase) gBlocks gene fragment was inserted with linkers in frame in between residues 91 and 92 of Gai2 or at the C-terminus of GPR84. The FYVE domain from human endofin (residues Q739 to K806) attached in frame at the C terminus of a humanized Renilla GFP (rGFP), were synthesized as gBlocks gene fragments.
Bioluminescence Resonance Energy Transfer (BRET) Measurement-HEK293 cells were transfected with GPR84-Rluc8 and rGFP-FYVE for the EEs trafficking biosensor or with GPR84, Gai2-Rluc8, GFP10-Gy2, and GB1 for the Ga; biosensor. The following day, transiently transfected cells were seeded in 96-well white clear bottom microplates coated with poly-D-lysine and left in culture for 24 hours. Cells were washed once with Tyrode's buffer (140 mmol/L NaCl, 1 mmol/L CaCl2), 2.7 mmol/L KCl, 0.49 mmol/L MgCl2, 0.37 mmol/L NaH2PO4, 5.6 mmol/L glucose, 12 mmol/L NaHCO3, and 25 mmol/L HEPES, pH 7.5) before performing assays in Tyrode's buffer. Test compounds were incubated with cells for 5 (Gai) or 15 (EEs) minutes at 37° C. before addition of 200 nmol/L of the GPR84 agonist ZQ-16 (2-(Hexylthio)-6-hydroxy-4 (3H)-pyrimidinone) for 5 minutes at room temperature (Gai) or 30 minutes at 37° C. (EEs). The Rluc8 substrate coelenterazine 400A (Prolume, Lakeside, A Z) was added at a final concentration of 5 μmol/L and BRET readings were collected using an Infinite M1000 microplate reader (Tecan, Morrisville, N C). BRET2 readings between Rluc8 and GFP10 or rGFP were collected by sequential integration of the signals detected in the 370 to 450 nm (Rluc8) and 510 to 540 nm (GFP10, rGFP) windows. The BRET signal was calculated as the ratio of light emitted by acceptor (GFP10, rGFP) over the light emitted by donor (Rluc8). The values were corrected to net BRET by subtracting the background BRET signal obtained in cells transfected with Rluc8 constructs alone. Ligand-promoted net BRET values were calculated by subtracting vehicle-induced net BRET from ligand-induced net BRET.

T1 sequence (Q9NQS5 whole entry): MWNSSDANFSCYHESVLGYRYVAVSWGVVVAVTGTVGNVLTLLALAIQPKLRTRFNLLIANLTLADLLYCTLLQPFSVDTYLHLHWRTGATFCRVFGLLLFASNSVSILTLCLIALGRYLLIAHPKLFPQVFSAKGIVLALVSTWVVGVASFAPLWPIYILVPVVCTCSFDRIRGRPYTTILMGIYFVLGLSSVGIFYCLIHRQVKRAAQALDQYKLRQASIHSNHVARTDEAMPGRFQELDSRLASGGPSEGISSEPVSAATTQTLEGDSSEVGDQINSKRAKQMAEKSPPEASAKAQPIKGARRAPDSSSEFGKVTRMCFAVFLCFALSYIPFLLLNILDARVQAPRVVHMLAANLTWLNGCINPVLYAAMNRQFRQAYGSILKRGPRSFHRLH

| SMILES | IC50 | inhibition at 2 µM | inhibition at 10 µM |
| --- | --- | --- | --- |
| Cc1cc(OCC(=O)N2CC[C@@H](C(=O)O)C2)cc(=O)n1[C@H](C)c1ccc(C#CC2CC2)cc1 [Compound I-250] | ≤ 300 nM | > 75% | – |
| Cc1cc(OCc2ncncc2Cl)cc(=O)n1[C@H](C)c1ccc(C#CC2CC2)cc1 [Compound I-15] | ≤ 300 nM | – | > 75% |
| Cc1cc(OCC(=O)N2CC[C@H](NS(C)(=O)=O)C2)cc(=O)n1[C@H](C)c1ccc(C#CC2CC2)cc1 [Compound I-335] | – | > 75% | – |
| Cc1cc(OCC(=O)N2C[C@H](O)[C@@H](O)C2)cc(=O)n1[C@H](C)c1ccc(C#CC2CC2)cc1 [Compound I-314] | ≤ 300 nM | > 75% | – |
| Cc1cc(OCC(=O)N(C)C)cc(=O)n1C(C)c1ccccn1 (centres unmarked) [Compound I-225] | – | – | < 25% |
| Cc1cc(OCC(=O)N2CCC2)cc(=O)n1[C@H](C)c1ccc(C#CC2CC2)c(F)c1 [Compound I-23] | ≤ 300 nM | > 75% | – |
| Cc1cc(OCC(=O)NC2CCN(C)CC2)cc(=O)n1[C@H](C)c1ccc(C#CC2CC2)cc1 [Compound I-43] | – | – | 50 to 75% |
| Cc1cc(OCC(=O)N(C)C)cc(=O)n1[C@H](C)c1ccc(C#CC2CC2(F)F)c(F)c1 (single isomer, unassigned) [Compound I-84] | ≤ 300 nM | – | – |
| Cc1cc(C#CC2CC2)cc(=O)n1[C@@H](C)c1ccc(C#CC2CC2)cc1 [Compound I-234] | – | – | < 25% |
| Cc1cc(OCc2ncccn2)cc(=O)n1[C@H](C)c1ccc(C#CC2(C)CC2)cc1 [Compound I-77] | – | – | 50 to 75% |
| Cc1cc(OCC(=O)N2CCC[C@H]2C(F)(F)F)cc(=O)n1[C@H](C)c1ccc(C#CC2CC2)cc1 [Compound I-255] | 300 to 1000 nM | > 75% | – |
| Cc1cc(OCc2cnc(NS(C)(=O)=O)nc2)cc(=O)n1[C@H](C)c1ccc(C#CC2CC2)cc1 [Compound I-81] | ≤ 300 nM | – | > 75% |
| COc1cccc([C@H](C)n2c(C)cc(C#CC3CC3)cc2=O)c1 [Compound I-238] | – | < 25% | – |
| Cc1cc(OCc2ncccn2)cc(=O)n1[C@H](C)c1ccc(-c2cnc(C3CC3)cn2)c(F)c1 [Compound I-10] | – | – | < 25% |
| Cc1cc(OCC(=O)N2CC[C@H](C(=O)O)C2)cc(=O)n1[C@H](C)c1ccc(C#CC2CC2)cc1 [Compound I-251] | ≤ 300 nM | > 75% | – |
| Cc1cc(OCC(=O)N2CC[C@H](C3CC3)C2)cc(=O)n1[C@H](C)c1ccc(C#CC2CC2)cc1 [Compound I-312] | – | > 75% | – |
| CCCCc1ccc(C(C)n2c(C)cc(OCc3ncccn3)cc2=O)cc1 (centres unmarked) [Compound I-5, 1-(1-(4-butylphenyl)ethyl)-6-methyl-4-(pyrimidin-2-ylmethoxy)pyridin-2 (1H)-one] | – | – | < 25% |
| Cc1cc(OCC(=O)NC2CCOCC2)cc(=O)n1[C@H](C)c1ccc(C#CC2CC2)cc1 [Compound I-66] | 300 to 1000 nM | – | 50 to 75% |
| COc1cncnc1COc1cc(C)n([C@H](C)c2ccc(C#CC3CC3)cc2)c(=O)c1 [Compound I-4] | – | – | > 75% |
| Cc1cc(OCc2nnnn2C2CC2)cc(=O)n1[C@H](C)c1ccc(C#CC2CC2)cc1 [Compound I-331] | – | > 75% | – |
| Cc1cc(OCS(=O)(=O)N(C)C)cc(=O)n1[C@H](C)c1ccc(C#CC2CC2)c(F)c1 [Compound I-37, (R)-1-(1-(1-(4-(cyclopropylethynyl)-3-fluorophenyl)ethyl)-6-methyl-2-oxo-1,2-dihydropyridin-4-yloxy)-N,N-dimethylmethanesulfonamide] | – | – | 50 to 75% |
| Cc1cc(OCC(=O)N(C)C2CN(C)C2)cc(=O)n1[C@H](C)c1ccc(C#CC2CC2)cc1 [Compound I-59] | – | – | > 75% |

More lines, now with the values ahead:

| IC50 | inhibition at 2 µM | inhibition at 10 µM | SMILES |
| --- | --- | --- | --- |
| ≤ 300 nM | > 75% | – | Cc1cc(OCc2nnnn2C)cc(=O)n1[C@H](C)c1ccc(C#CC2CC2)cc1 [Compound I-260] |
| – | – | > 75% | Cc1cc(OCC(=O)C2CCCC2)cc(=O)n1[C@H](C)c1ccc(C#CC2CC2)cc1 [Compound I-273] |
| ≤ 300 nM | > 75% | – | Cc1cc(OCC(=O)N2CC[C@H](F)C2)cc(=O)n1[C@H](C)c1ccc(C#CC2CC2)cc1 [Compound I-244] |
| – | – | 50 to 75% | Cc1cc(OCS(=O)(=O)N(C)C)cc(=O)n1[C@H](C)c1ccc(C#CC2CC2)cc1 [Compound I-41] |
| ≤ 300 nM | – | > 75% | Cc1cc(OCC(=O)N2CC(C)(O)C2)cc(=O)n1[C@H](C)c1ccc(C#CC2CC2)cc1 [Compound I-345] |
| ≤ 300 nM | > 75% | – | Cc1cc(OCC(=O)N2CC3(CCC3)C2)cc(=O)n1[C@H](C)c1ccc(C#CC2CC2)cc1 [Compound I-282] |
| ≤ 300 nM | > 75% | – | Cc1cc(OCC(=O)N2CC(C(=O)O)C2)cc(=O)n1[C@H](C)c1ccc(C#CC2CC2)cc1 [Compound I-302] |
| ≤ 300 nM | > 75% | – | Cc1cc(OCC(=O)N2CCCCC2)cc(=O)n1[C@H](C)c1ccc(C#CC2CC2)cc1 [Compound I-341] |
| ≤ 300 nM | > 75% | – | CCc1cc([C@@H](C)n2c(C)cc(OCC(=O)N(C)C)cc2=O)ccc1C#CC1CC1 [Compound I-39] |
| ≤ 300 nM | > 75% | – | Cc1cc(OCc2nnn[nH]2)cc(=O)n1[C@H](C)c1ccc(C#CC2CC2)cc1 [Compound I-259] |
| ≤ 300 nM | – | > 75% | Cc1cc(OCC(=O)N2CCCC23CC3)cc(=O)n1[C@H](C)c1ccc(C#CC2CC2)cc1 [Compound I-320] |
| ≤ 300 nM | > 75% | – | Cc1cc(OCc2nncn2C)cc(=O)n1[C@H](C)c1ccc(C#CC2CC2)cc1 [Compound I-330] |
| – | – | > 75% | COCCNC(=O)COc1cc(C)n([C@H](C)c2ccc(C#CC3CC3)cc2)c(=O)c1 [Compound I-349] |
| ≤ 300 nM | > 75% | – | CCN(CC)C(=O)COc1cc(C)n([C@H](C)c2ccc(C#CC3CC3)cc2)c(=O)c1 [Compound I-268] |
| > 3000 nM | – | > 75% | COC(COc1cc(C)n([C@H](C)c2ccc(C#CC3CC3)cc2)c(=O)c1)C(C)(C)C (some centres unmarked) [Compound I-277] |
| ≤ 300 nM | > 75% | – | Cc1nc(OCC(=O)N(C)C)cc(=O)n1C(C)c1ccc(C#CC2CC2)cc1 (centres unmarked) [Compound I-89] |
| ≤ 300 nM | > 75% | – | Cc1cc(OCC(=O)N2CCC2)cc(=O)n1[C@H](C)c1ccc(C#CC2CC2)cc1 [Compound I-1, (R)-4-(2-(azetidin-1-yl)-2-oxoethoxy)-1-(1-(4-(cyclopropylethynyl)phenyl)ethyl)-6-methylpyridin-2 (1H)-one] |
| – | – | 50 to 75% | Cc1cc(COCC(=O)N(C)C)cc(=O)n1[C@H](C)c1ccc(C#CC2CC2)cc1 [Compound I-340] |
| – | – | 25 to 50% | Cc1cc(OCC(=O)NC2CNC2)cc(=O)n1[C@H](C)c1ccc(C#CC2CC2)cc1 [Compound I-69] |
| 1000 to 3000 nM | > 75% | – | Cc1cc(OCC(=O)N2CC(C)(C#N)C2)cc(=O)n1[C@H](C)c1ccc(C#CC2CC2)cc1 [Compound I-343] |
